Laboratory results taken from patent US8362000B2, “Azetidinyl diamides as monoacylglycerol lipase inhibitors” (Janssen Pharmaceutica NV, priority 2009, dated 2013).
Numbering of substitutions follows the chain as printed. Where two headings read alike, the source gives them in different places.

What was measured:
[1] = tested on: CFA-induced paw radiant heat hypersensitivity; test: CFA-induced paw radiant heat hypersensitivity; format: in vivo, rat; settings: Rattus norvegicus, po, HPβCD; for inhibition in vivo at 10 mg/kg: 5 h, 10 mg/kg p.o., last time point 300 min; for inhibition in vivo at 30 mg/kg: 30 mg/kg p.o., last time point 180 or 300 min
Experimental: Each rat was placed in a test chamber on a warm glass surface and allowed to acclimate for approximately 10 min. A radiant thermal stimulus (beam of light) was then focused through the glass onto the plantar surface of each hind paw in turn. The thermal stimulus was automatically shut off by a photoelectric relay when the paw was moved or when the cut-off time was reached (20 sec for radiant heat at ˜5 amps). An initial (baseline) response latency to the thermal stimulus was recorded for each animal prior to the injection of complete Freund's adjuvant (CFA). […] Immediately following the post-CFA latency assessment, the indicated test compound or vehicle was administered orally.
The percent reversal (% R) of hypersensitivity was calculated in one of two different ways: 1) using group mean values or 2) using individual animal values. More specifically:
Method 2. For some compounds, the % R of hypersensitivity was calculated separately for each animal according to the following formula: % reversal=[(individual treatment response−individual CFA response)/(individual baseline response−individual CFA response)]×100. Results are given as a mean of the maximum % reversal values calculated for each individual animal.

[2] = biological target: T1, purified wild type MGL (wt-MGLL 6H-11-313) (Homo sapiens, UniProt Q99685)
T1 sequence (Q99685 1-303): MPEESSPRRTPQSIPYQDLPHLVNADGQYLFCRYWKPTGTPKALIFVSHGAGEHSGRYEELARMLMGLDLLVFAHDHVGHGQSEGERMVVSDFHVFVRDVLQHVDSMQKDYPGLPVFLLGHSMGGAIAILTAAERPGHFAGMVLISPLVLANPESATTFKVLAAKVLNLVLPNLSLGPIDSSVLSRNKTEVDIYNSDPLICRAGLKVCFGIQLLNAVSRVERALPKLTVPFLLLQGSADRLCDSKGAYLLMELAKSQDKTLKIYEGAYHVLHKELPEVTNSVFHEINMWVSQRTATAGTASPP

MGL = biological target: T2, MGL (Rattus norvegicus, UniProt Q8R431); test: 2-AG accumulation assay in rat brain homogenate; format: biochemical; settings: rat brain homogenate; compound 1 μM; 2-AG accumulation as percent of vehicle; read-out: Rat Brain 2AG % VehCntrl (%) @ 1 μM
T2 construct: one g rat brain was homogenized using a Polytron homogenizer; from tissue; host or cells: rat brain homogenate
T2 sequence (Q8R431 1-303): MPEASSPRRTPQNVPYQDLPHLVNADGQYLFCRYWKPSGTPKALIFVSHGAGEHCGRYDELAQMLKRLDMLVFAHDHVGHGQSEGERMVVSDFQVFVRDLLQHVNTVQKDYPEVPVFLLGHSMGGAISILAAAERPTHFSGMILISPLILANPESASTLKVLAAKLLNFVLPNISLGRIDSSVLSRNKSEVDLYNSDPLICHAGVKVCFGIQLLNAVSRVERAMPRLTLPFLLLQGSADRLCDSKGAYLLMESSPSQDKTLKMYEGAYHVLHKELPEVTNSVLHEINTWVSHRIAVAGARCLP

mutant MGL = biological target: T3, mutant MGL (Homo sapiens, UniProt Q99685, L169S/L176S); test: MGL ThermoFluor assay - mutant; format: binding
T3 sequence (Q99685 1-303 L169S/L176S): T1 sequence (Q99685 1-303) with L169S, L176S

[3] = group mean values, read-out: CFA thermal hypersensitivity Method 1: peak % reversal
[4] = individual animal values, read-out: CFA thermal hypersensitivity Method 2: peak % reversal
[5] = ThermoFluor concentration-response, read-out: MGL mutant ThermoFluor Kd
[6] = compound concentration measured by qNMR, read-out: MGL mutant ThermoFluor qKd (using qNMR conc.)
[7] = ThermoFluor, compound concentration measured by qNMR, read-out: MGL mutant ThermoFluor qKd (μM) (using qNMR conc.)
[8] = ThermoFluor thermal stability binding assay, read-out: MGL mutant ThermoFluor Kd

| SMILES | IC50 [2] [nM] | 2-AG accumulation, % of vehicle control at 1 µM (MGL) [%] | Kd (mutant MGL; [7]) [µM] | inhibition in vivo at 30 mg/kg [1, 3] [%] | further results |
| --- | --- | --- | --- | --- | --- |
| O=C(c1ccccc1)N1CCN(C2CN(C(=O)c3ccc4c(ccn4-c4ccc(C(F)(F)F)cc4)c3)C2)CC1 [Cpd 126, 5-({3-[4-(Phenylcarbonyl)piperazin-1-yl]azetidin-1-yl}carbonyl)-1-[4-(trifluoromethyl)phenyl]-1H-indole] |  |  |  | 51 | inhibition in vivo at 10 mg/kg [1, 3]: 40.8%; inhibition in vivo at 10 mg/kg [1, 4]: 40.4%; inhibition in vivo at 30 mg/kg [1, 4]: 79.5% |
| O=C(c1ccc2nc(-c3ccccc3)oc2c1)N1CC(N2CCN(C(=O)c3nccs3)CC2)C1 [Cpd 318, 2-Phenyl-6-({3-[4-(1,3-thiazol-2-ylcarbonyl)piperazin-1-yl]azetidin-1-yl}carbonyl)-1,3-benzoxazole] |  |  |  | 44.7 |  |
| O=C(c1cscn1)N1CCN(C2CN(C(=O)c3sc4cc(C(F)(F)F)ccc4c3Cl)C2)CC1 [Cpd 335, 1-(1-{[3-Chloro-6-(trifluoromethyl)-1-benzothiophen-2-yl]carbonyl}azetidin-3-yl)-4-(1,3-thiazol-4-ylcarbonyl)piperazine] |  |  |  | 108 | inhibition in vivo at 30 mg/kg [1, 4]: 135% |
| O=C(c1ccc2c(ccn2-c2ccc(F)cc2)c1)N1CC(N2CCN(C(=O)c3nccs3)CC2)C1 [Cpd 487, 1-(4-Fluorophenyl)-5-({3-[4-(1,3-thiazol-2-ylcarbonyl)piperazin-1-yl]azetidin-1-yl}carbonyl)-1H-indole] |  |  |  | 109 | inhibition in vivo at 30 mg/kg [1, 4]: 166% |
| O=C(c1ccccc1)N1CCN(C2CN(C(=O)c3ccc4c(ccn4-c4ccc(F)cc4)c3)C2)CC1 [Cpd 567, 1-(4-Fluorophenyl)-5-({3-[4-(phenylcarbonyl)piperazin-1-yl]azetidin-1-yl}carbonyl)-1H-indole] |  |  |  | 63.1 |  |
| O=C(c1nccs1)N1CCN(C2CN(C(=O)c3sc4cc(C(F)(F)F)ccc4c3F)C2)CC1 [Cpd 895, 1-(1-{[3-Fluoro-6-(trifluoromethyl)-1-benzothiophen-2-yl]carbonyl}azetidin-3-yl)-4-(1,3-thiazol-2-ylcarbonyl)piperazine] | < 5 |  |  | 23.4 |  |
| O=C(c1ccc2nc(-c3ccccc3)oc2c1)N1CC(N2CCN(C(=O)c3cscn3)CC2)C1 [Cpd 1141, 2-Phenyl-6-({3-[4-(1,3-thiazol-4-ylcarbonyl)piperazin-1-yl]azetidin-1-yl}carbonyl)-1,3-benzoxazole] |  |  |  | 5.7 |  |
| O=C(c1ccc2c(-c3ccc(C(F)(F)F)cc3)c[nH]c2c1)N1CC(N2CCN(C(=O)c3cscn3)CC2)C1 [Cpd 1344] | < 5 | 543 |  |  | Kd (mutant MGL; [5]): 0.01 µM |
| O=C(c1ccc2c(-c3cccc(C(F)(F)F)c3)c[nH]c2c1)N1CC(N2CCN(C(=O)c3cscn3)CC2)C1 [Cpd 1345] | < 5 | 459 |  |  | Kd (mutant MGL; [5]): 0.006 µM |
| Cc1c(C(=O)N2CC(N3CCN(C(=O)c4nccs4)CC3)C2)sc2ccc(-c3ccccc3)cc12 [Cpd 1346, 1-{1-[(3-Methyl-5-phenyl-1-benzothiophen-2-yl)carbonyl]azetidin-3-yl}-4-(1,3-thiazol-2-ylcarbonyl)piperazine] | < 5 | 406 |  |  | Kd (mutant MGL; [5]): 0.002 µM |
| O=C(c1nccs1)N1CCN(C2CN(C(=O)c3cc4ccn(-c5ccc(F)cc5)c4cc3F)C2)CC1 [Cpd 1349] | < 5 | 846 |  |  | Kd (mutant MGL; [5]): 0.005 µM; Kd (mutant MGL; [6]): 0.006 µM |
| O=C(c1cc(F)c2c(ccn2-c2ccc(F)cc2)c1)N1CC(N2CCN(C(=O)c3nccs3)CC2)C1 [Cpd 1350, 7-Fluoro-1-(4-fluorophenyl)-5-({3-[4-(1,3-thiazol-2-ylcarbonyl)piperazin-1-yl]azetidin-1-yl}carbonyl)-1H-indole] | < 5 | 873 |  |  | Kd (mutant MGL; [6]): 0.001 µM |
| Cc1cc(C(=O)N2CC(N3CCN(C(=O)c4nccs4)CC3)C2)sc1-c1ccc(F)cc1 [Cpd 1353] | < 5 | 545 | 0.018 |  |  |
| O=C(c1ccc2c(ccn2-c2cc(F)c(F)c(F)c2)c1)N1CC(N2CCN(C(=O)c3nccs3)CC2)C1 [Cpd 1367] | < 5 | 798 |  |  | Kd (mutant MGL; [8]): 0.002 µM |
| Cc1cn(-c2cccc(F)c2)c2ccc(C(=O)N3CC(N4CCN(C(=O)c5nccs5)CC4)C3)cc12 [Cpd 1368] | < 5 | 859 | 0.001 |  |  |
| Cc1cc(C(=O)N2CCN(C3CN(C(=O)c4ccc(-c5ccccc5)cc4)C3)CC2)no1 [Cpd 1465] | > 16700 | 110 |  |  | Kd (mutant MGL; [8]): > 31.2 µM |

The next lines start with results.

| IC50 [2] [nM] | 2-AG accumulation, % of vehicle control at 1 µM (MGL) [%] | Kd (mutant MGL; [7]) [µM] | SMILES | inhibition in vivo at 30 mg/kg [1, 3] [%] | further results |
| --- | --- | --- | --- | --- | --- |
| < 5 |  |  | Cc1c(C(=O)N2CC(N3CCN(C(=O)c4nccs4)CC3)C2)sc2cc(C(F)(F)F)ccc12 [Cpd 899, 1-(1-{[3-Methyl-6-(trifluoromethyl)-1-benzothiophen-2-yl]carbonyl}azetidin-3-yl)-4-(1,3-thiazol-2-ylcarbonyl)piperazine] | 80.1 |  |
| < 5 | 718 | 0.043 | Cc1sc(C(=O)N2CC(N3CCN(C(=O)c4nccs4)CC3)C2)cc1-c1cccc(C(F)(F)F)c1 [Cpd 1351] |  |  |
| < 5 | 548 | 0.008 | Cc1cc(C(=O)N2CC(N3CCN(C(=O)c4nccs4)CC3)C2)sc1-c1ccc(C(F)(F)F)cc1 [Cpd 1352] |  |  |
| < 5 | 750 | 0.009 | Cc1cc(C(=O)N2CC(N3CCN(C(=O)c4nccs4)CC3)C2)sc1-c1cccc(C(F)(F)F)c1 [Cpd 1354] |  |  |
| < 5 | 994 |  | O=C(c1ccc(-c2ccc(C(F)(F)F)s2)cc1)N1CC(N2CCN(C(=O)c3nccs3)CC2)C1 [Cpd 1361, 1-(1,3-Thiazol-2-ylcarbonyl)-4-[1-({4-[5-(trifluoromethyl)thiophen-2-yl]phenyl}carbonyl)azetidin-3-yl]piperazine] |  | Kd (mutant MGL; [5]): 0.003 µM |
| < 5 | 909 |  | O=C(c1ccc2c(c1)c(Cl)cn2-c1ccc(F)cc1)N1CC(N2CCN(C(=O)c3nccs3)CC2)C1 [Cpd 1365, 3-Chloro-1-(4-fluorophenyl)-5-({3-[4-(1,3-thiazol-2-ylcarbonyl)piperazin-1-yl]azetidin-1-yl}carbonyl)-1H-indole] |  | Kd (mutant MGL; [5]): 0.002 µM |
| < 5 | 874 | 0.002 | O=C(c1ccc2c(ccn2-c2ccc(OC(F)(F)F)cc2)c1)N1CC(N2CCN(C(=O)c3nccs3)CC2)C1 [Cpd 1369] |  |  |
| < 5 | 773 | 0.013 | O=C(c1ccc2c(ccn2-c2ccc(OC(F)(F)F)cc2)c1)N1CC(N2CCN(C(=O)c3cscn3)CC2)C1 [Cpd 1370] |  |  |
| < 5 | 827 | 0.003 | O=C(c1ccc2c(ccn2-c2cc(F)cc(F)c2)c1)N1CC(N2CCN(C(=O)c3nccs3)CC2)C1 [Cpd 1371] |  |  |
